# In patent US9273101B2, “Functionalized biomaterials for tissue regeneration” (Nanomed3D S.R.L., priority 2011, dated 2016):
# “Also recorded” adds a separate entry of the source.
# Legend:
# [1] = test system: murine NSCs in adhesion (Laminin coated dishes); assay: Phage biopanning (Ph.D.-7 library) against adhering NSCs; format: binding; conditions: for Frequency, eluted phage clones / Frequency, internalized phage clones: clones sequenced after three rounds of biopanning; for Frequency, eluted phage clones / %, eluted phage clones: cell membrane bound phages (MP); for %, eluted phage clones / %, internalized phage clones: consensus after three rounds of biopanning; for Frequency, internalized phage clones / %, internalized phage clones: internalized clones (IP)
# Description: (§1) Two days prior cell seeding murine NSCs were mechanically dissociated in order to seed the maximum percentage of stem cells.
# NSCs, three million per plate, were seeded over Laminin coated 10 cm Petri dishes (Falcon). After an overnight incubation in 10 ml of βFGF supplemented (10 ng/ml) neural basal media, cells were washed with pre-warmed Incubation Medium.
# (§2) The Ph.D.-7 phage library was used (New England Biolabs), composed of phage clones with random 7-mer peptides fused to the N-terminal of PIII, a minor coat protein of M13 phage.
# (§3) Before biopanning experiments against NSCs in adhesion, the phage library was incubated in a Laminin-coated tissue culture dish in order to remove phages with affinity to the Laminin coated plastic surface (negative selection). Mouse Laminin (10 mL at 25 μg/ml concentration) (Roche) was incubated overnight at 37° C. 10^12 cfu of phages were incubated for one hour at 37° C. in pre-warmed Incubation Medium (DMEM supplemented with 0.1% BSA) in Laminin-coated plastic surfaces (setting for adhering NSCs) or plain plastic surfaces (setting for NSCs in suspension). Then incubation Medium and a total volume of five washes of Washing Buffer (DPBS supplemented with 1% BSA and 0.05% Tween-20) were collected and eluted phages were amplified as described in the standard protocol of New England Biolabs.
# (§4) 10^12 cfu of the negatively selected phage library were diluted in 10 ml Incubation Medium and pipetted onto the adhering NSCs or NSCs in suspension.
# (§5) After 1 hour of incubation at 37° C. cells were washed five times with pre-warmed Washing Buffer, cell membrane bound phages (MP) and internalized clones (IP) were recovered from independent duplicates of differentiating progenies by eluting and/or lysing the cells respectively. The cell surface was stripped by a 5 minutes incubation of 5 ml of Glycine Buffer (0.2 M Glycine-HCl supplemented with 1 mg/ml BSA (pH 2.2)) at RT. Eluted Phages were neutralized with 5 ml of 1 M Tris-HCl buffer (pH 8) and amplified.
# (§6) Cells were then lysed with 9 ml of Lysing Buffer (0.1% TEA in PBS) for 5 minutes at RT. Internalized phages were neutralized with 1 ml of 1 M Tris-HCl buffer.
# (§7) Neutralized phages were titered by infection of Escherichia coli to monitor the selection. Internalized and eluted phages were amplified separately for another round of selection. Three rounds of positive selection were performed. At round number two and three the biopannings of internalized and eluted phages were performed in different cell cultures (but with identical culture conditions) by collecting the phages of interest (i.e. internalized phages from libraries of internalized phages) and discarding the leftovers.
# (§8) After the third round of biopanning, phage clones were randomly picked out from the titer plates and sequenced. Thirty phage plaques per each set of phages were randomly picked for sequencing. A small number of clones wasn't successfully sequenced. […] In the case of panning against NSC in suspension the highest consensus was for KLPGWSG (SEQ ID NO: 10) (47.36 for MP), GETRAPL (SEQ ID NO: 12) (14.28% for IP and 10.52% for MP) and HAIYPRH (SEQ ID NO: 11) (28.57% for IP and 5.26% for MP).
# [2] = test system: NSCs cultured in suspension; assay: Phage biopanning (Ph.D.-7 library) against NSCs in suspension; format: binding, murine; conditions: after three rounds of biopanning; for %, internalized phage clones / Frequency, internalized phage clones: internalized clones (IP); for %, eluted phage clones / Frequency, eluted phage clones: membrane bound phages (MP)
# Description: as §1, §2, §3, §4, §5, §6, §7, §8
# murine NSCs [3] = assay: Imaging and cell proliferation assay (CellTiter 96 MTS) on assembled hydrogels, murine NSCs; format: cell-based; conditions: 7 DIV
# Description: (§9) In vitro tests were performed as previously described (8), in order to assess whether the biomaterials (assembled hydrogels) obtained with the SAPs of the present invention influenced NSCs adhesion, survival and/or differentiation. SAPeptides (30 μl for each well at a concentration of 10 mg/ml) were assembled into 96 multiwells two hours before cell. Cells (at a concentration of 2×10^4 cells/cm^2) were seeded on the top-surface of each assembled scaffold. Initially, cells were cultured with basal medium supplemented with βFGF (10 ng/ml), added to […]. At 3 days in vitro (DIV), βFGF medium was replaced with Leukemia Inhibitory Factor (LIF, Chemicon) (20 ng/ml) and Brain Derived Neurotrophic Factor (BDNF, Peprotech) (20 ng/ml). Fresh medium was added every three days. For both viability and differentiation assays positive and negative controls consisted of Cultrex-BME® substrate (R&D systems) (1:100 dilution in basal medium) and untreated bottom well surfaces respectively. Cell viability was quantified via CellTiter 96® Aqueous Proliferation Assay (Promega) at 7 DIV as recommended in the Promega protocol. After calibrating the linear response between the cell number and absorbance values, proliferated cell populations were quantified (n=5) by using a Vmax microplate reader (Molecular Devices) at 490 nm wavelength. Values, reported as means±standard error of the mean, were blanked to their respective controls consisting of same substrates and cell culture media without cells.
# human NSCs = assay: Imaging and cell proliferation assay (CellTiter 96 MTS) on assembled hydrogels, human NSCs; format: cell-based; conditions: 7 DIV, scaffolds 10 mg/ml, vs control, P<0.03
# Description: as §9
# murine NSCs [4] = assay: Immunofluorescence of differentiated NSC progeny on SAP scaffolds, murine; format: cell-based; conditions: scaffold stiffness 100, 500 and 1000 Pa
# Description: as §9
# Immunofluorescence tests were performed for assaying the phenotypes of the differentiated human and murine NSC progenies. In the case of KLP and Ac-KLP just murine NSC have been used. Ac-KLP and KLP scaffolds were prepared at different concentrations in order to display three different stiffness values (viz. 100, 500 and 1000 Pa). This was done to assess the influence of scaffold concentration (and consequently its stiffness) over NSC differentiation. All the other peptides were tested at 1% v/w concentration instead. The following antibodies were used: rabbit polyclonal against GFAP (1:500, DakoCytomation) for astrocytes, mouse monoclonal against βIII-Tubulin (1:500, Covance) for neurons, mouse monoclonal against GalC (1:200, Chemicon) and O4 (1:200, Chemicon) for oligodendrocyes. Secondary Abs were Goat anti Mouse Alexa 488 (1:1000, Molecular Probes), Goat anti Mouse Cy3 (1:1000, Jackson Immunoresearch), Goat anti Rabbit Cy3 (1:1000, Jackson Immunoresearch). Cell nuclei were counterstained with DAPI (Molecular Probes). Quantitative analyses were performed by counting 100-300 cells for each of 9 randomly chosen fields over a total of 3 independent experiments. Phase contrast and fluorescence images of the adhering cells were acquired via Zeiss microscopes Axioplan 2 and ApoTome System at one week after seeding.
Substance,"Frequency, eluted phage clones [1]","%, eluted phage clones [1] [%]","Frequency, internalized phage clones [1]","%, internalized phage clones [1] [%]",other results
TAVNSDA,1,4.2,,,
GETRAPL (Prepared by synthesis) [heptapeptide domain found by phage biopanning against NSCs],,,,,"%, internalized phage clones [2]: 14.28%; Frequency, internalized phage clones [2]: 2; %, eluted phage clones [2]: 10.52%; Frequency, eluted phage clones [2]: 2"
LQAIPRN (Prepared by synthesis) [heptapeptide domain found by phage biopanning against NSCs],,,1,3.5,
SLPKLPP (Prepared by synthesis) [heptapeptide domain found by phage biopanning against NSCs],,,1,3.5,
SASHWQI (Prepared by synthesis) [heptapeptide domain found by phage biopanning against NSCs],,,1,3.5,
ALTPWAF (Prepared by synthesis) [heptapeptide domain found by phage biopanning against NSCs],,,,,"%, eluted phage clones [2]: 10.52%; Frequency, eluted phage clones [2]: 2"
TTTPTTP,1,4.2,,,
NH2-QHLPRDHGGGLDLKLDLKLDLK-CONH2 (H-QHLPRDHGGGLDLKLDLKLDLK-NH2),,,,,"cell viability / proliferated cell population (MTS) (murine NSCs [3]; scaffolds 10 mg/ml, vs control, P<0.005): significantly fostered cell viability; also recorded: significantly favored; cell viability / proliferated cell population (MTS) (human NSCs): significantly fostered cell viability; also recorded: significantly favored"
QHLPRDH (Prepared by synthesis) [heptapeptide domain found by phage biopanning against NSCs],2,8.3,4,14.2,
YRMPIWP (Prepared by synthesis) [heptapeptide domain found by phage biopanning against NSCs],,,1,3.5,
SSELVTH,1,4.2,,,
GKPMPPM (Prepared by synthesis) [heptapeptide domain found by phage biopanning against NSCs],,,,,"%, eluted phage clones [2]: 10.52%; Frequency, eluted phage clones [2]: 2"
KLPGWSG (Prepared by synthesis) [heptapeptide domain found by phage biopanning against NSCs],,,,,"%, eluted phage clones [2]: 47.36%; Frequency, eluted phage clones [2]: 9"
TPLSSHS (Prepared by synthesis) [heptapeptide domain found by phage biopanning against NSCs],,,1,3.5,
HAIYPRH (Prepared by synthesis) [heptapeptide domain found by phage biopanning against NSCs],,,,,"%, internalized phage clones [2]: 28.57%; Frequency, internalized phage clones [2]: 4; %, eluted phage clones [2]: 5.26%; Frequency, eluted phage clones [2]: 1"
SSLSVND (Prepared by synthesis) [heptapeptide domain found by phage biopanning against NSCs],1,4.2,3,10.7,
YIIPMHD (Prepared by synthesis) [heptapeptide domain found by phage biopanning against NSCs],1,4.2,1,3.5,
TPPFAAW,1,4.2,,,
NH2-KLPGWSGGGGLDLKLDLKLDLK-CONH2 (H-KLPGWSGGGGLDLKLDLKLDLK-NH2),,,,,"cell morphology, adhesion and spreading on assembled hydrogels (murine NSCs [3]): fostered NSCs adhesion and spreading similarly to FAQ; differentiated neurons (βIIITubulin positive cells) in correspondence of stiffness reductions (murine NSCs [4]): significant increments"
SILPYPY (Prepared by synthesis) [heptapeptide domain found by phage biopanning against NSCs],,,,,"%, internalized phage clones [2]: 14.28%; Frequency, internalized phage clones [2]: 2"
FAQRVPP (Prepared by synthesis) [heptapeptide domain found by phage biopanning against NSCs],15,62.5,,53.5,
LTTGSGS,1,4.2,,,
